Earlier results, collected in patent US20220211725A1, “Pharmaceutical Composition Comprising Venetoclax” (Alembic Pharmaceuticals Limited, priority 2019, published 2022).

Conditions: background description

aqueous solubility: very low
SMILES: CC1(C)CCC(CN2CCN(c3ccc(C(=O)NS(=O)(=O)c4ccc(NCC5CCOCC5)c([N+](=O)[O-])c4)c(Oc4cnc5[nH]ccc5c4)c3)CC2)=C(c2ccc(Cl)cc2)C1 [Venetoclax]
